Data: patent US20250236596A1, “HYDROXYLAMINE-BASED EGFR INHIBITORS FOR TREATMENT OF CANCER WITH BRAIN METASTASES” (University of Georgia Research Foundation, Inc., priority 2022, published 2025)

How the values were obtained:
CYP2C19 = CYP2C19 (Homo sapiens, UniProt P33261); assay: Human CYP450 inhibition in human liver microsomes, CYP2C19; type: in vitro ADME; details: pooled human liver microsomes, probe (S)-mephenytoin (50 μM), 4′-hydroxylation
Protocol: (§1) Assessment of compound 15 was carried out at Pharmaron Inc. for its potential to inhibit cytochrome P450 (CYP) isoforms using human liver microsomes. The activities tested were CYP1A2-mediated phenacetin O-demethylation, CYP2C19-mediated (S)-mephenytoin 4′-hydroxylation, CYP2C9-mediated diclofenac 4′-hydroxylation, CYP2D6-mediated dextromethorphan O-demethylation and CYP3A4-mediated midazolam 1′-hydroxylation. Concentrations of substrates were phenacetin (40 μM), mephenytoin (50 μM), diclofenac (6 μM), dextromethorphan (2 μM) and midazolam (1 μM). Probe substrates phenacetin, mephenytoin and dextromethorphan were incubated at 37° for 20 min. Probe substrates diclofenac and midazolam were incubated at 37° for 5 min. […] The reactions were initiated by adding NADPH (1 mM final concentration) after a 5 min-preincubation and the assay was ran in duplicate (n=2). Samples were analyzed by UPLC-MS/MS.

hERG channel = target: T1, hERG channel (Homo sapiens, UniProt Q12809); assay: hERG channel inhibition, manual patch clamp; type: cell-based
T1 construct: assay at Pharmaron Inc; host or cells: HEK293
T1 sequence (Q12809 whole entry): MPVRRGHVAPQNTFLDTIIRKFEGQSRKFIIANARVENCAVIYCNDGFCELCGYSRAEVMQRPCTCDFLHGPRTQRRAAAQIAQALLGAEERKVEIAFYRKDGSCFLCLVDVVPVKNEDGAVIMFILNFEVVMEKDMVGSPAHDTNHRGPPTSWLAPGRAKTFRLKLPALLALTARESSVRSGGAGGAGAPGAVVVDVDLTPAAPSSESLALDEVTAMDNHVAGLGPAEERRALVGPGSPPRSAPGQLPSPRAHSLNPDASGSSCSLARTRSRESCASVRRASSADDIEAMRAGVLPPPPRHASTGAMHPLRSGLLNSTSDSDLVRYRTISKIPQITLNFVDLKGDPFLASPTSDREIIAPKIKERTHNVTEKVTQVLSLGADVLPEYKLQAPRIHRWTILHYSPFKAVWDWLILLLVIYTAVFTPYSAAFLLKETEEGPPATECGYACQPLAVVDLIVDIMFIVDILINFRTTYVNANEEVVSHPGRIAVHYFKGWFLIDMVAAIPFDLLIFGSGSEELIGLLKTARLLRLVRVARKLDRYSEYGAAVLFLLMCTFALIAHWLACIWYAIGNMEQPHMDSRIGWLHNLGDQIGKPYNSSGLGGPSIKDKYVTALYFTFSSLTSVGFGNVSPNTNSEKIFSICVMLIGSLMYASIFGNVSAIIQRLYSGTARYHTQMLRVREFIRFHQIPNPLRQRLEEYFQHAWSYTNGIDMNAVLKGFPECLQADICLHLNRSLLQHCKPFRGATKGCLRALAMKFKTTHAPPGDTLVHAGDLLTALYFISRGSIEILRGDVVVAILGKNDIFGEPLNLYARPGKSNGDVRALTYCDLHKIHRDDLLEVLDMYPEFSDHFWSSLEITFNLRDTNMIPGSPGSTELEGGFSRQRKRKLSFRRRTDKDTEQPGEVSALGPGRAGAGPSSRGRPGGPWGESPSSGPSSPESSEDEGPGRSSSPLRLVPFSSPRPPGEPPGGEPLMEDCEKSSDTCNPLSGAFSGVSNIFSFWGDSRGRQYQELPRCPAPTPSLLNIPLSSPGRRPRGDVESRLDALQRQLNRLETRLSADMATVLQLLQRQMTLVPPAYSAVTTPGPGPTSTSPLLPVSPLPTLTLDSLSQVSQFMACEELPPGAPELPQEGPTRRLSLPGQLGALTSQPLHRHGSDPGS
Protocol: The potential inhibitory effect of compounds on the hERG channel was assessed by Pharmaron Inc. using the manual patch clamp system as previously described.^20 The HEK293 cell line (Invitrogen) stably transfected with the hERG gene was employed. Compounds were tested at 5 concentrations (0.37, 1.11, 3.33, 10 and 30 μM) and run in triplicate (n=3). IC50 values were determined by plotting the % inhibition against the concentration of compounds using GraphPad Prism from the non-linear regression equation fitted with a sigmoidal dose-response curve, and the IC50 values are presented as the mean±SEM.

[1] = tested on: Ba/F3 EGFR-del E746_A750/C797S cells; assay: CellTiter-Glo viability assay, Ba/F3 EGFR-del E746_A750/C797S; type: cell-based; details: Mus musculus, BaF3, osimertinib-resistant, 72 h, read-out: antiproliferative IC50
Protocol: (§2) The A431, HCC827, SK-BR-3, ZR-75-30, AU565 and Caco-2 cell lines were obtained from ATCC. The NCI-H1975 cell line was obtained from SIBS. The NCI-H3255 cell line was obtained from CoBioer. Engineered Ba/F3 cell lines were obtained from Crown Bioscience. MCKII-MDR1 cells were obtained from the Netherlands Cancer Institute. HEK293 cells were obtained from Invitrogen. A431 cells were cultured in DMEM (Life Technologies) with 10% FBS. HCC827, NCI-H1975 and AU565 cells were cultured in RPMI1640 (Invitrogen) with 10% FBS. NCI-H3255 cells were cultured in BEGM (Lonza) with 10% FBS. Ba/F3 EGFR-del E746_A750/C797S and Ba/F3 EGFR-L858R/C797S cells were cultured in RPMI (Invitrogen) with 10% FBS. SK-BR-3 cells were cultured in McCoy's 5a (Invitrogen) with 10% FBS. ZR-75-30 cells were cultured in RPMI1640 (Invitrogen) with 20% FBS. BT474 cells were cultured in DMEM (Gibco) with 10% FBS and 10 μg/mL Insulin. Caco-2 and MCKII-MDR1 culture information is given in the permeability studies section. […]
(§3) Viability assays using A431, HCC827, NCI-H1975, NCI-H3255, Ba/F3 EGFR-del E746_A750/C797S, Ba/F3 EGFR-L858R/C797S, AU565, SK-BR-3 and ZR-75-30 cells were performed at Crown BioScience. […] Dose-response curves were generated and used to calculate the IC50 values which were calculated on GraphPad Prism from the non-linear regression equation fitted with a sigmoidal dose response and are presented as the mean±SEM.

CYP2C9 = CYP2C9 (Homo sapiens, UniProt P11712); assay: Human CYP450 inhibition in human liver microsomes, CYP2C9; type: in vitro ADME; details: pooled human liver microsomes, probe diclofenac (6 μM), 4′-hydroxylation
CYP2C9, sequence (P11712 whole entry): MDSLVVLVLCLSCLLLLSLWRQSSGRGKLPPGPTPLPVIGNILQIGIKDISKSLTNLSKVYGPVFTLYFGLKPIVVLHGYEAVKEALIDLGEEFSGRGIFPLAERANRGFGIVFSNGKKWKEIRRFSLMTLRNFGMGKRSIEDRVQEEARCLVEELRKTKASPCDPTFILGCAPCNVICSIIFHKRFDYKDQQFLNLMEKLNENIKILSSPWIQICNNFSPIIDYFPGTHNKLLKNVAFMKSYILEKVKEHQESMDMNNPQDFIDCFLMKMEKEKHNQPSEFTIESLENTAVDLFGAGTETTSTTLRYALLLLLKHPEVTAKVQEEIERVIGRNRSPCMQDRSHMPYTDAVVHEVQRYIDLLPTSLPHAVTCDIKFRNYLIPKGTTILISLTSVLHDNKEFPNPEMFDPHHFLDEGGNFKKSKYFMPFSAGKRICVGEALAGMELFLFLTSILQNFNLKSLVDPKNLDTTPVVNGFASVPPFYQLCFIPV
Protocol: as §1

[2] = tested on: HCC827 NSCLC cells (EGFR del E746_A750); assay: CellTiter-Glo viability assay, HCC827; type: cell-based; details: Homo sapiens; HCC827, EGFR del E746_A750, 72 h; read-out: antiproliferative IC50
Protocol: as §2, §3

[3] = tested on: 468-member human kinase panel; assay: KINOMEScan kinase selectivity panel, S score; type: binding; details: 1 μM; 6/403 nonmutant kinases
Source text: Percent control was mapped onto the kinome tree using TREEspot™.

[4] = tested on: NCI-H3255 NSCLC cell line (EGFR L858R); assay: CellTiter-Glo viability assay, NCI-H3255; type: cell-based; details: Homo sapiens, 72 h, read-out: antiproliferative IC50
Protocol: as §2, §3

[5] = tested on: A431 cell line (overexpressed EGFR wt); assay: CellTiter-Glo viability assay, A431; type: cell-based, human
Protocol: as §2, §3

[6] = tested on: HER2-positive breast cancer cell lines: AU565, SK-BR-3, BT474 and ZR-75-30; assay: CellTiter-Glo viability assay, HER2+ breast cancer cell lines; type: cell-based, human; details: AU565, SK-BR-3, BT474, ZR-75-30; result in words
Protocol: as §2, §3

CYP2C19, sequence (P33261 whole entry, canonical isoform): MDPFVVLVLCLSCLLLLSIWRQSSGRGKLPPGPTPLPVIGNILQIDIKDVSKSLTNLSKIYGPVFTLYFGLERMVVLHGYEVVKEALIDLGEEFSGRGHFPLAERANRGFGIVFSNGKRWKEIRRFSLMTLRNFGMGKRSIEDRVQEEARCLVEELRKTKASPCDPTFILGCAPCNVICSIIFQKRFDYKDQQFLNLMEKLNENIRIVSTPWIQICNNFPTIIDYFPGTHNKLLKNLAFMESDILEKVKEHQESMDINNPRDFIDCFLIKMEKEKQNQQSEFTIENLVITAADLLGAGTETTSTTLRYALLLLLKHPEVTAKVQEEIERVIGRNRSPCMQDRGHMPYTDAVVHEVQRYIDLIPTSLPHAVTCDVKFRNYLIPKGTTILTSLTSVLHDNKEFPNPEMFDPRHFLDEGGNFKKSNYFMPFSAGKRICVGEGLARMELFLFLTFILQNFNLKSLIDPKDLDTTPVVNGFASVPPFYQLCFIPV

With `COc1cc2ncnc(Nc3cccc(Cl)c3F)c2cc1OCCON1CCN(C)CC1` [Compound 15, N-(3-chloro-2-fluorophenyl)-7-methoxy-6-(2-((4-methylpiperazin-1-yl)oxy)ethoxy)quinazolin-4-amine] the IC50 at 20 min (CYP2C19) was over 30 µM, the IC50 (hERG channel; HEK293 cells transfected with hERG, patch clamp) was 6.48 µM and the hERG maximal inhibition (hERG channel; at 10 μM) was “approximately 60%”. It also gave an IC50 [1] of 0.0025 µM, an IC50 at 5 min (CYP2C9) of over 30 µM and an IC50 [2] of 0.0031 µM. For the same compound, the “S(10) score” value [3] was 0.015, the IC50 [4] was 0.0072 µM and the antiproliferative activity ([5]; A431, 72 h, result in words) was “minimal activity”. For the same compound, the IC50 ([5]; Homo sapiens, A-431, A431, overexpressed EGFR wt, 72 h, read-out: antiproliferative IC50) was 0.083 µM and the antiproliferative activity [6] was “moderate antiproliferative activity”.
